Measurements published in ChEMBL document CHEMBL5352404, “Synthesis and evaluation of novel furanones as biofilm inhibitors in opportunistic human pathogens” (Eur J Med Chem, 2022).
Calls of active or inactive are those of the source. The rule behind the calls is not given here.

What was measured:
[1] = tested on: Stenotrophomonas maltophilia; experiment: Antibacterial activity against Stenotrophomonas maltophilia K279a assessed as bacterial growth inhibition at 50 uM incubated for 20 hrs by broth microdilution method; format: functional, organism-based
[2] = tested on: Stenotrophomonas maltophilia; experiment: Inhibition of biofilm formation in Stenotrophomonas maltophilia K279a at 50 uM incubated for 24 hrs by crystal violet staining based analysis; format: functional, organism-based
Pseudomonas aeruginosa [3] = experiment: Antibacterial activity against eYFP labeled Pseudomonas aeruginosa PAO1 assessed as inhibition of bacterial growth at 50 uM incubated for 20 hrs by broth microdilution method relative to control; format: functional; set-up: scale not given: the % may be the effect or the level left
Pseudomonas aeruginosa [4] = experiment: Antibacterial activity against Pseudomonas aeruginosa PAR7244 assessed as bacterial growth inhibition at 50 uM incubated for 20 hrs by broth microdilution method; format: functional, organism-based
Staphylococcus aureus = experiment: Inhibition of biofilm formation in Staphylococcus aureus Newman ATCC 25904 at 50 uM incubated for 24 hrs by crystal violet staining based assay relative to control; format: functional
Pseudomonas aeruginosa [5] = experiment: Inhibition of biofilm formation in eYFP labeled Pseudomonas aeruginosa PAO1 at 50 uM incubated for 24 hrs by crystal violet staining based analysis relative to control; format: functional
Candida albicans [6] = experiment: Inhibition of biofilm formation in RFP-expressing Candida albicans M2396 at 50 uM incubated for 24 hrs by crystal violet staining based analysis relative to control; format: functional
HK-2 = experiment: Cytotoxicity against human HK-2 cells assessed as reduction in cell survival at 50 uM incubated for 24 to 48 hrs by MTT assay; format: toxicity, cell-based; settings: hk-2, 50 µM, time 24-48 hrs
[7] = Toxicity in Galleria mellonella larvae assessed as reduction in animal survival at 100 uM
[8] = Toxicity in Galleria mellonella larvae assessed as signs of melanization at 100 uM
Pseudomonas aeruginosa [9] = experiment: Antibiofilm activity against Pseudomonas aeruginosa PAR7244 assessed as reduction in biofilm formation at 50 uM incubated for 24 hrs by crystal violet staining based analysis relative to control; format: functional; set-up: scale not given: the % may be the effect or the level left
Escherichia coli [10] = experiment: Antibiofilm activity against Escherichia coli ATCC 9637 assessed as reduction in biofilm formation at 50 uM incubated for 24 hrs by crystal violet staining based assay relative to control; format: functional; set-up: scale not given: the % may be the effect or the level left
Escherichia coli [11] = experiment: Antibacterial activity against Escherichia coli ATCC 9637 assessed as bacterial growth inhibition at 50 uM incubated for 20 hrs by broth microdilution method relative to control; format: functional; set-up: scale not given: the % may be the effect or the level left
Candida albicans [12] = experiment: Inhibition of biofilm formation in developmental phase of Candida albicans M2396 at 50 uM incubated for 24 hrs by crystal violet staining based analysis relative to control; format: functional

| SMILES | Activity [1] | inhibition [2] | Activity (Pseudomonas aeruginosa [3]) | Activity (Pseudomonas aeruginosa [4]) | inhibition at 50 µM (Staphylococcus aureus) [%] | inhibition at 50 µM (Pseudomonas aeruginosa [5]) [%] | inhibition at 50 µM (Candida albicans [6]) [%] | Activity (HK-2) | Activity [7] | Activity [8] | Activity (Pseudomonas aeruginosa [9]) [%] | Activity (Escherichia coli [10]) [%] | Activity (Escherichia coli [11]) [%] | inhibition at 50 µM (Candida albicans [12]) [%] |
| --- | --- | --- | --- | --- | --- | --- | --- | --- | --- | --- | --- | --- | --- | --- |
| COc1ccccc1/C(Br)=C1\C=CC(=O)O1 | inactive | inactive | <=5% | inactive |  |  |  |  |  |  |  |  |  |  |
| O=C1C=C/C(=C(/Br)c2ccc(F)cc2)O1 | inactive | inactive | <=5% | inactive |  |  |  |  |  |  |  |  |  |  |
| COc1ccc(C(=C2C=C(Br)C(=O)O2)c2ccc(OC)cc2)cc1 | inactive | inactive | <=5% | inactive |  |  |  |  |  |  |  |  |  |  |
| O=C1C=C/C(=C(/Br)c2ccccc2)O1 | inactive | inactive | <=5% | inactive |  |  |  |  |  |  |  |  |  |  |
| COc1ccccc1C(=C1C=CC(=O)O1)c1ccccc1OC | inactive | inactive | <=5% | inactive | 7 | 41 |  |  |  |  |  |  |  |  |
| O=C1C=CC(=C(c2ccc(O)cc2)c2ccc(O)cc2)O1 | inactive | inactive | <=5% | inactive | 52 |  |  |  |  |  |  |  |  |  |
| CC1=CC(=O)OC1=C(Br)Br | inactive | inactive | 11% | inactive |  | 70 | 38 | Toxic | Non-Toxic | Non-Toxic | 44 |  |  |  |
| COc1ccc(C#CC(C#Cc2ccc(OC)cc2)=C2C=CC(=O)O2)cc1 | inactive | inactive | <=5% | inactive | 36 |  |  |  |  |  |  | 31 | 8 |  |
| COc1ccc(/C(Cl)=C2\C=CC(=O)O2)cc1 | inactive | inactive | <=5% | inactive |  |  |  |  |  |  |  |  |  |  |
| COc1ccc(C(=C2C=CC(=O)O2)c2ccc(OC)cc2)cc1 | inactive | inactive | <=5% | inactive | 44 |  | 61 |  |  |  |  |  |  | 75 |
| COc1cccc(/C(Br)=C2\C=CC(=O)O2)c1 | inactive | inactive | <=5% | inactive |  |  |  |  |  |  |  |  |  |  |
| O=C1C=C(CBr)C(=O)O1 | inactive | inactive | <=5% | inactive |  |  |  |  |  |  |  |  |  |  |
| COc1ccc(C(=C2C=C(Br)C(=O)O2)c2ccc(OC)c(Br)c2)cc1Br | inactive | inactive | <=5% | inactive |  |  |  |  |  |  |  | 15 |  |  |
| O=C1C=C/C(=C(/Br)c2ccc(C(F)(F)F)cc2)O1 | inactive | inactive | <=5% | inactive |  |  | 75 |  |  |  |  |  |  | 85 |
| O=C1C=CC(=C(c2ccc([N+](=O)[O-])cc2)c2ccc([N+](=O)[O-])cc2)O1 | inactive | inactive | <=5% | inactive |  |  |  |  |  |  |  |  |  |  |
| O=C1OC(=C(c2ccc(C(F)(F)F)cc2)c2ccc(C(F)(F)F)cc2)C=C1Br | inactive | inactive | <=5% | inactive |  |  |  |  |  |  |  |  |  |  |
